Laboratory results published in ChEMBL document CHEMBL5244280, “Evodiamine Lowers Blood Lipids by Up-Regulating the PPARγ/ABCG1 Pathway in High-Fat-Diet-Fed Mice” (J Nat Prod, 2021).
Activity calls are given as the source filed them. The calls are words filed in the database; no cut-off is given here.

Key:
Mus musculus [1] = test: Effect on food intake in high fat diet-fed hyperlipidemic ICR mouse model at 10 mg/kg, ig administered daily via gavage for 8 weeks; format: functional, organism-based
Mus musculus [2] = test: Protection against hyperlipidemia in high fat diet-fed hyperlipidemic ICR mouse model assessed as reduction in serum LDL-C content at 10 mg/kg, ig administered daily via gavage for 8 weeks by spectrophotometric analysis; format: functional; details: po, 1344 h
[3] = Toxicity against normal diet-fed ICR mouse assessed as effect on plasma total cholesterol content at 10 mg/kg, ig administered daily via gavage for 8 weeks by spectrophotometric analysis; format: organism-based; details: in vivo, po, 1344 h
[4] = Toxicity against normal diet-fed ICR mouse assessed as effect on plasma HDL-C content at 10 mg/kg, ig administered daily via gavage for 8 weeks by spectrophotometric analysis; format: organism-based; details: in vivo, po, 1344 h
Mus musculus [5] = test: Protection against hyperlipidemia in high fat diet-fed hyperlipidemic ICR mouse model assessed as reduction in serum total cholesterol content at 20 mg/kg, ig administered daily via gavage for 8 weeks by spectrophotometric analysis; format: functional, organism-based
Mus musculus [6] = test: Protection against hyperlipidemia in high fat diet-fed hyperlipidemic ICR mouse model assessed as serum HDL-C content at 20 mg/kg, ig administered daily via gavage for 8 weeks by spectrophotometric analysis; format: functional, organism-based
Mus musculus [7] = test: Protection against hyperlipidemia in high fat diet-fed hyperlipidemic ICR mouse model assessed as reduction in body weight at 10 mg/kg, ig administered daily via gavage for 8 weeks; format: functional; details: po, 1344 h
[8] = Toxicity in normal diet fed ICR mouse assessed as body weight loss at 10 mg/kg, ig administered daily via gavage for 8 weeks; format: organism-based; details: in vivo, po, 1344 h
[9] = Toxicity in normal diet fed ICR mouse assessed as effect on food intake at 10 mg/kg, ig administered daily via gavage for 8 weeks; format: organism-based; details: in vivo, po, 1344 h
[10] = Toxicity in normal diet fed ICR mouse assessed as ratio of liver weight to body weight at 10 mg/kg, ig administered daily via gavage for 8 weeks (reference value: 3.74 +/-0.53); format: organism-based; details: in vivo, po, 1344 h
[11] = Toxicity in normal diet fed ICR mouse assessed as ratio of heart weight to body weight at 10 mg/kg, ig administered daily via gavage for 8 weeks (reference value: 0.46 +/-0.03); format: organism-based; details: in vivo, po, 1344 h
[12] = Toxicity in normal diet fed ICR mouse assessed as ratio of kidney weight to body weight at 10 mg/kg, ig administered daily via gavage for 8 weeks (reference value: 1.33 +/-0.12); format: organism-based; details: in vivo, po, 1344 h
[13] = Toxicity in normal diet fed ICR mouse assessed as ratio of spleen weight to body weight at 10 mg/kg, ig administered daily via gavage for 8 weeks (reference value: 0.42 +/-0.08); format: organism-based; details: in vivo, po, 1344 h
[14] = Toxicity in high fat diet fed hyperlipidemic ICR mouse model assessed as ratio of liver weight to body weight at 10 mg/kg, ig administered daily via gavage for 8 weeks (reference value: 4.23 +/-0.79); format: organism-based; details: in vivo, po, 1344 h
[15] = Toxicity in high fat diet fed hyperlipidemic ICR mouse model assessed as ratio of heart weight to body weight at 10 mg/kg, ig administered daily via gavage for 8 weeks (reference value: 0.48 +/-0.03); format: organism-based; details: in vivo, po, 1344 h
[16] = Toxicity in high fat diet fed hyperlipidemic ICR mouse model assessed as ratio of kidney weight to body weight at 10 mg/kg, ig administered daily via gavage for 8 weeks (reference value: 1.34 +/-0.09); format: organism-based; details: in vivo, po, 1344 h
Mus musculus [17] = test: Protection against hyperlipidemia in high fat diet-fed hyperlipidemic ICR mouse model assessed as reduction in hepatic triglyceride content at 10 mg/kg, ig administered daily via gavage for 8 weeks by colorimetric assay; format: functional; details: po, 1344 h
Mus musculus [18] = test: Protection against hyperlipidemia in high fat diet-fed hyperlipidemic ICR mouse model assessed as reduction in hepatic TBA content at 10 to 20 mg/kg, ig administered daily via gavage for 8 weeks by colorimetric assay; format: functional, organism-based; details: dose 10-20 mg/kg
[19] = Toxicity in normal diet fed ICR mouse assessed as liver morphological changes at 10 mg/kg, ig administered daily via gavage for 8 weeks; format: organism-based; details: in vivo, po, 1344 h
[20] = Toxicity in normal diet fed ICR mouse assessed as hepatic triglyceride content at 10 mg/kg, ig administered daily via gavage for 8 weeks by colorimetric assay; format: organism-based; details: in vivo, po, 1344 h
[21] = Toxicity in normal diet fed ICR mouse assessed as hepatic total cholesterol content at 10 mg/kg, ig administered daily via gavage for 8 weeks by colorimetric assay; format: organism-based; details: in vivo, po, 1344 h
Mus musculus [22] = test: Upregulation of ABCG1 protein expression in liver of high fat diet fed hyperlipidemic ICR mouse model at 10 mg/kg, ig administered daily via gavage for 8 weeks by western blotting analysis; format: functional, organism-based
Mus musculus [23] = test: Upregulation of SR-B1 protein expression in liver of normal diet fed ICR mouse at 10 mg/kg, ig administered daily via gavage for 8 weeks by western blotting analysis; format: functional, organism-based
Mus musculus [24] = test: Upregulation of ABCA1 protein expression in liver of high fat diet fed hyperlipidemic ICR mouse model at 10 mg/kg, ig administered daily via gavage for 8 weeks by western blotting analysis; format: functional, organism-based
Mus musculus [25] = test: Upregulation of ABCG8 protein expression in liver of high fat diet fed hyperlipidemic ICR mouse model at 10 mg/kg, ig administered daily via gavage for 8 weeks by western blotting analysis; format: functional, organism-based
Mus musculus [26] = test: Upregulation of NPC1L1 protein expression in liver of high fat diet fed hyperlipidemic ICR mouse model at 10 mg/kg, ig administered daily via gavage for 8 weeks by western blotting analysis; format: functional, organism-based
Mus musculus [27] = test: Upregulation of SR-B1 mRNA expression in liver of high fat diet fed hyperlipidemic ICR mouse model at 10 mg/kg, ig administered daily via gavage for 8 weeks by qPCR analysis; format: functional, organism-based
Mus musculus [28] = test: Upregulation of ABCG5 mRNA expression in liver of high fat diet fed hyperlipidemic ICR mouse model at 10 mg/kg, ig administered daily via gavage for 8 weeks by qPCR analysis; format: functional, organism-based
Mus musculus [29] = test: Upregulation of NPC1 mRNA expression in liver of high fat diet fed hyperlipidemic ICR mouse model at 10 mg/kg, ig administered daily via gavage for 8 weeks by qPCR analysis; format: functional, organism-based
[30] = biological target: T1, Retinoic acid receptor RXR-alpha (Homo sapiens) (UniProt P19793); test: Agonist activity at human RXR-alpha expressed in HEK293 cells co-transfected with luciferase reporter plasmid assessed as receptor transactivation at 10 uM incubated for 18 hrs by luciferase reporter gene assay relative to control; format: cell-based
T1 sequence (whole entry): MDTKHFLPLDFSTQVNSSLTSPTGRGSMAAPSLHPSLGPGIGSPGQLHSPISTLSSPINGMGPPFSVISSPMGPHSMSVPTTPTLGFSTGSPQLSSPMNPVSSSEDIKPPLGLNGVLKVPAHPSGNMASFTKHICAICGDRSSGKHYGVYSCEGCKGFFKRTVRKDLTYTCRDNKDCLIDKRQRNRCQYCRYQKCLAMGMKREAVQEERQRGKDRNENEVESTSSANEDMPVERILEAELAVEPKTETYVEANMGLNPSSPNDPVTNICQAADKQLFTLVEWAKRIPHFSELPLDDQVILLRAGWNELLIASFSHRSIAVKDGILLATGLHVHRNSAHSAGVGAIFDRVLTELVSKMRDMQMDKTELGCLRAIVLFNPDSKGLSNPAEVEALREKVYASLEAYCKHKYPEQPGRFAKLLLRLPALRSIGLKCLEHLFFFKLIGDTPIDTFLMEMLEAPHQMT

- fold change (FC) [30]: 1.04
SMILES: CN1c2ccccc2C(=O)N2CCc3c([nH]c4ccccc34)C21 (stereo not given)
- Activity (Mus musculus [1]): inactive
- inhibition in vivo at 10 mg/kg (Mus musculus [2]): 65.1%
- Activity [3]: Non-Toxic
- Activity [4]: Non-Toxic
- Activity (Mus musculus [5]): Active
- Activity (Mus musculus [6]): inactive
- inhibition in vivo at 10 mg/kg (Mus musculus [7]): 68.1%
- Activity [8]: Toxic
- Activity [9]: Non-Toxic
- Ratio [10]: 3.64
- Ratio [11]: 0.49
- Ratio [12]: 1.33
- Ratio [13]: 0.41
- Ratio [14]: 3.85
- Ratio [15]: 0.48
- Ratio [16]: 1.29
- inhibition in vivo at 10 mg/kg (Mus musculus [17]): 33.2%
- Activity (Mus musculus [18]): Active
- Activity [19]: Non-Toxic
- Activity [20]: Non-Toxic
- Activity [21]: Non-Toxic
- Activity (Mus musculus [22]): Active
- Activity (Mus musculus [23]): Active
- Activity (Mus musculus [24]): inactive
- Activity (Mus musculus [25]): inactive
- Activity (Mus musculus [26]): inactive
- Activity (Mus musculus [27]): inactive
- Activity (Mus musculus [28]): inactive
- Activity (Mus musculus [29]): inactive
